Experimental data taken from patent US4031210A, “Antibiotic aminoglycosides, processes of preparation and pharmaceutical compositions” (Roussel-UCLAF, priority 1974, dated 1977).
Structures can show the parent of a compound that is named as a salt. Where two headings read alike, the source gives them in different places.

Experiments:
[1] = system: Enterobacter aerogenes Co11; assay: In vitro antibacterial activity, dilution method in liquid medium; assay type: cell-based; details: Klebsiella aerogenes, 37°, expressed as base, read-out: minimal inhibiting concentration (MIC)
Method: (§1) The antibacterial activity has been measured in vitro by the dilution method in liquid medium. A series of tubes is prepared in which is distributed the same quantity of nutritive medium. Increasing quantities of the antibiotic under study are distributed, then each tube is innoculated with a bacterial strain as indicated in the table. After a 18, 24 or 48 hour incubation in a 37° oven, inhibition of the bacterial growth is appraised by transillumination which determines the minimal inhibiting concentration (MIC) of the products expressed as μg/ml of base in the table. In the following table, the product of Example 2 is identified as Product A.

[2] = system: Enterobacter aerogenes Co86; assay: as above; assay type: cell-based; details: Klebsiella aerogenes, 37°, expressed as base, read-out: minimal inhibiting concentration (MIC)
Method: as §1

[3] = system: Escherichia coli 156; assay: as above; assay type: cell-based; details: 37°, expressed as base, read-out: minimal inhibiting concentration (MIC)
Method: as §1

[4] = system: Escherichia coli 9 911; assay: as above; assay type: cell-based; details: 37°, expressed as base, read-out: minimal inhibiting concentration (MIC)
Method: as §1

[5] = system: Escherichia coli 9 965; assay: as above; assay type: cell-based; details: 37°, expressed as base, read-out: minimal inhibiting concentration (MIC)
Method: as §1

[6] = system: Salmonella anatum 23 348; assay: as above; assay type: cell-based; details: Salmonella enterica, 23348, 37°, expressed as base, read-out: minimal inhibiting concentration (MIC)
Method: as §1

[7] = system: Salmonella typhimurium 1 374; assay: as above; assay type: cell-based; details: Salmonella enterica, 37°, expressed as base, read-out: minimal inhibiting concentration (MIC)
Method: as §1

[8] = system: Salmonella typhimurium 420; assay: as above; assay type: cell-based; details: Salmonella enterica, 37°, expressed as base, read-out: minimal inhibiting concentration (MIC)
Method: as §1

[9] = system: Serratia marcesens CoB 35; assay: as above; assay type: cell-based; details: 37°, expressed as base, read-out: minimal inhibiting concentration (MIC)
Method: as §1

[10] = system: Staphylococcus aureus 38 691; assay: as above; assay type: cell-based; details: 37°, expressed as base, read-out: minimal inhibiting concentration (MIC)
Method: as §1

[11] = system: Staphylococcus aureus 40 481; assay: as above; assay type: cell-based; details: 37°, expressed as base, read-out: minimal inhibiting concentration (MIC)
Method: as §1

[12] = system: Staphylococcus aureus 40 511; assay: as above; assay type: cell-based; details: 37°, expressed as base, read-out: minimal inhibiting concentration (MIC)
Method: as §1

[13] = system: Staphylococcus aureus 40 821; assay: as above; assay type: cell-based; details: 37°, expressed as base, read-out: minimal inhibiting concentration (MIC)
Method: as §1

[14] = system: Streptococcus faecalis 99 F 74; assay: as above; assay type: cell-based; details: Enterococcus faecalis, 99F74; 18 H incubation, 37°, expressed as base; read-out: minimal inhibiting concentration (MIC)
Method: as §1

[15] = system: Klebsiella Pneumonia No. 52145; assay: In vivo antibacterial activity on experimental Klebsiella Pneumonia infection in mice; details: subcutaneous, 1, 5 and 24 hours after infection, 10 mice
Method: The antibacterial activity has been measured in vivo on an experimental Klebsiella Pneumonia infection.
40 male mice with a medium weight of 21 grams were divided in 4 series of 10 mice. An intraperitoneal infection with 0.5 ml of a Klebsiella Pneumonia No. 52145 culture in nutritive medium diluted to one thousandth with sterile water is conducted. Treatment is performed by a subcutaneous administration of the product of Example 2, (Product A) three times, (1 hour, 5 hours and 24 hours) after infection. The mortality rate at different times as indicated in the table was measured as well as the number of mice surviving after 8 days.

[16] = total dose 0,03 mg (as free base)

CNC1CC(C)OC(OC2C(N)CC(N)C(OC3OC(CN)C(O)CC3N)C2O)C1O [Product A, 4-0-[2',6'-diamino 2', 3', 6'-tridesoxy α, D-ribohexopyranosyl] 6-0-[3"-methylamino 3",4",6"-tridesoxy α, D-xylohexopyranosyl] 2-desoxy streptamine sulfate]
MIC ([1]; 18 H incubation): 0.4 µg/mL | MIC ([1]; 24 H incubation): 0.4 µg/mL | MIC ([1]; 48 H incubation): 1 µg/mL | MIC ([2]; 18 H incubation): 0.6 µg/mL | MIC ([2]; 24 H incubation): 0.6 µg/mL | MIC ([2]; 48 H incubation): 0.6 µg/mL | MIC ([3]; 18 H incubation): 0.4 µg/mL | MIC ([3]; 24 H incubation): 0.6 µg/mL | MIC ([3]; 48 H incubation): 1 µg/mL | MIC ([4]; 9911, 18 H incubation): 0.6 µg/mL | MIC ([4]; 9911, 24 H incubation): 0.6 µg/mL | MIC ([4]; 9911, 48 H incubation): 0.2 µg/mL | MIC ([5]; 9965, 18 H incubation): 0.6 µg/mL | MIC ([5]; 9965, 24 H incubation): 1 µg/mL | MIC ([5]; 9965, 48 H incubation): 2 µg/mL | MIC ([6]; 18 H incubation): 1 µg/mL | MIC ([6]; 24 H incubation): 3 µg/mL | MIC ([6]; 48 H incubation): 15 µg/mL | MIC ([7]; 18 H incubation): 1 µg/mL | MIC ([7]; 24 H incubation): 5 µg/mL | MIC ([7]; 48 H incubation): 10 µg/mL | MIC ([8]; 18 H incubation): 2 µg/mL | MIC ([8]; 24 H incubation): 5 µg/mL | MIC ([8]; 48 H incubation): 20 µg/mL | MIC ([9]; COB35, 18 H incubation): 10 µg/mL | MIC ([9]; COB35, 24 H incubation): 40 µg/mL | MIC ([9]; COB35, 48 H incubation): 40 µg/mL | MIC ([10]; 38691, 24 H incubation): 0.1 µg/mL | MIC ([10]; 38691, 48 H incubation): 0.1 µg/mL | MIC ([11]; 40481, 18 H incubation): 0.1 µg/mL | MIC ([11]; 40481, 24 H incubation): 0.1 µg/mL | MIC ([11]; 40481, 48 H incubation): 0.2 µg/mL | MIC ([12]; 40511, 18 H incubation): 0.2 µg/mL | MIC ([12]; 40511, 24 H incubation): 0.6 µg/mL | MIC ([12]; 40511, 48 H incubation): 1 µg/mL | MIC ([13]; 40821, 18 H incubation): 0.1 µg/mL | MIC ([13]; 40821, 24 H incubation): 0.1 µg/mL | MIC ([13]; 40821, 48 H incubation): 0.1 µg/mL | MIC [14]: > 20 µg/mL | Mortality at 5 H [15, 16]: 1 | Survived to the eighth day (number of mice) [15, 16]: 9 mice | Survived to the eighth day (number of mice) ([15]; total dose 0,05 mg (as free base)): 10 mice | Survived to the eighth day (number of mice) ([15]; total dose 0,075 mg (as free base)): 10 mice
